Data as given in PubChem BioAssay (NCI).
Where “and” joins values, the source holds several entries; their conditions need not be identical. Equal entries are not always repeated.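 Values below derive from 48-hour exposures of cells grown in 96-well plates, with endpoints linearly interpolated between the two concentrations bracketing the appropriate inhibition level. Abbreviation: GI50, concentration required for 50% inhibition of growth. TGI: concentration producing complete growth inhibition.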

Assays:
Assay in all cases: NCI anticancer screen, dose series, 48 h
[1] = system: SW-620 colon
[2] = system: RPMI-8226 leukemia
[3] = system: SK-MEL-28 melanoma
[4] = system: NCI/ADR-RES ovarian
[5] = system: U251 CNS
[6] = system: HT29 colon
[7] = system: T-47D breast
[8] = system: RXF 393 renal
[9] = system: SF-268 CNS
[10] = system: ACHN renal

Structure (SMILES)	TGI [1] [µM]	TGI [2] [µM]	TGI [3] [µM]	TGI [4] [µM]	TGI [5] [µM]	TGI [6] [µM]	TGI [7] [µM]	TGI [8] [µM]	TGI [9] [µM]	TGI [10] [µM]	GI50 [8]
COc1cc(C2c3cc4c(cc3OC(NN=C(C)C)C2C)OCO4)cc(OC)c1O (stereo unspecified)	> 100	31.2	> 100	> 100	> 100	> 100	> 100	> 100	> 100	–	–
NC(=O)C(=O)N/N=C1/c2ccccc2CC1C1(O)C(=O)Nc2c(Cl)cc(Cl)cc21 (stereo unspecified)	> 100	> 100	> 100	–	> 100	> 100	–	> 100	> 100	> 100	–
CCC12C[N+]3([O-])CCc4c([nH]c5ccccc45)C(C(=O)OC)(c4cc5c(cc4OC)N(C)C4C(O)(C(=O)OC)C(OC(C)=O)C6(CC)C=CCN7CCC54C76)CC(C3)C1O2 (stereo unspecified)	20.4	1.43	0.959	–	86.1	17.2	–	4.65	28.8	31.9	–
COc1cc(/C=C2\C(=O)N(C(=O)Cc3ccccc3)N=C2C)ccc1O	> 100	> 100	> 100	–	–	–	–	–	> 100	> 100	–
CCOP(=O)(OCC)C1C(CO)OC(n2ccc(=O)[nH]c2=O)C1O (stereo unspecified)	> 100	> 100	> 100	–	–	> 100	> 100	> 100	> 100	> 100	–
CCNC(=O)Nc1ccccn1	> 100	–	> 100	–	> 100	> 100	> 100	> 100	> 100	> 100	–
C/C(=C\c1ccccc1)C(=O)CCN1CCOCC1	30.9	20.6	35.4	50.5	30.7	35.7	–	35.2	> 85.6	–	–
CC1(C)O[C@@H]2COC(=O)[C@@H]2O1	> 100	–	> 100	> 100	> 100	> 100	> 100	> 100	> 100	> 100	–
C=C(C)CCC(=O)[C@](C)(O)[C@H]1[C@H](O)C[C@@]2(C)[C@@H]3CCc4c(cc(OC5OC(CO)C(O)C(O)C5O)c(O)c4C)C3(C)C(=O)C[C@]12C (stereo partly specified)	> 100	–	> 100	> 100	> 100	> 100	> 100	> 100	> 100	> 100	–
C/C(=N/NC(N)=S)c1ccc2ccccc2c1	> 100	–	> 100	–	80.4	72.4	–	81.8	> 100	> 100	–
c1ccc2c(c1)[nH]c1nc3cc(-c4ccc5nc6c(nc5c4)[nH]c4ccccc46)ccc3nc12	> 100	> 100	> 100	–	> 100	> 100	> 100	> 100	> 100	> 100	–
Nn1c(CCCCCCCCc2nnc(COc3c(O)ccc4ccccc34)n2N)nnc1COc1c(O)ccc2ccccc12	> 100	> 100	> 100	> 100	> 100	> 100	–	> 100	> 100	> 100	–
CN(C)NC(=S)Nc1ccccc1Br	> 100	> 100	> 100	> 100	> 100	> 100	> 100	> 100	–	> 100	–
COC(=O)NN(C(=O)OC)c1c(-c2ccccc2)nc(SC)n1N	> 100	> 100	> 100	> 100	> 100	–	> 100	> 100	> 100	> 100	–
CCC(C(=O)O)c1ccc(OCc2ccccc2)cc1 (stereo unspecified)	> 100	> 100	> 100	–	> 100	> 100	–	> 100	> 100	> 100	–
CN(C)c1ccc(-c2c(C#N)c(S)n(NS(=O)(=O)c3ccccc3)c(=O)c2C#N)cc1	> 100	91	> 100	49.5	> 100	–	–	> 100	–	> 100	–
CN(C)C(CN)CC1=C(CC(CN)N(C)C)CCC1 (stereo unspecified)	> 100	> 100	> 100	> 100	> 100	> 100	–	> 100	> 100	–	–
CCOC(=O)C1=C(C(C)=O)CSC(c2ccccc2)=N1	> 100	> 100	> 100	> 100	> 100	> 100	–	> 100	> 100	–	–
CCN(CC)CCNc1ccc2nnn3c4ccc(OC)cc4c(=O)c1c23	17.1	14.9	28.9	–	22.3	15.9	–	–	20.6	21.7	–
CSC1CC2C(CC1(C)O)C2(C)C (stereo unspecified)	> 100	> 100	> 100	–	> 100	> 100	–	> 100	> 100	> 100	29.6 µM and > 100 µM
Cc1nn(C(=O)Cc2ccccc2)c2c1C(c1ccccc1O)SC(N)=N2 (stereo unspecified)	> 100	> 100	> 100	–	–	> 100	> 100	–	> 100	> 100	–
CC(C)(C)C1=Cc2cc3cc(C(C)(C)C)[nH]c(=O)c3cc2S(=O)(=O)N1	44.8	98.5	> 100	–	34	41.4	–	–	95.1	89.3	–
CCOC(=O)c1[nH]cc(C)c1-c1ccn(-c2ccccc2)c1	> 100	–	> 100	> 100	> 100	> 100	> 100	> 100	> 100	> 100	–
O=C(CP(=O)(O)O)c1cccs1	> 100	> 100	> 100	–	> 100	> 100	–	–	> 100	> 100	–
Cc1cc2c(C)cc(=O)[nH]c2cc1N	> 100	> 100	> 100	> 100	> 100	> 100	> 100	> 100	–	> 100	–
